Laboratory results reported in patent publication US5652105A, “Substrate for detection of mammalian 5-C-DNA methyltransferase” (Health Research, Inc., priority 1995, dated 1997).
[5mC] = 5-methylcytosine

Assays:
murine DNA 5-C-MTase [1] = experiment: Methylation assay: methyl transfer from [methyl-3H]AdoMet to ODNs by DNA methyltransferase from Friend erythroleukemia cell nuclei; type: biochemical; settings: for ACTIVITY (cpm), DNA methylase (FL): Table 5, S + M1 and its 5-fluorocytosine containing double stranded analogs; for rate of methylation relative to unmethylated A (times): ODNs with 5MeC in position 7 designed to form or not to form the stem-loop; for RELATIVE ACTIVITY (rate of methylation relative to an equal amount of AS): Table 6, single-stranded ODN; for DNA METHYLASE (FL) SUBSTRATE ACTIVITY, ACTIVITY (CPM): Table 4, single and double stranded constructs, average of 2 expts, background 1813
Description: The phosphoramidite of 5-fluorodeoxycytidine (5FdC) and unmodified 5-methyl deoxycytosine (5MdC) and 5FC-containing ODNs were synthesized and purified as described in Marasco, C. J. et al., J. Org. […] 5MdC phosphoramidite is commercially available. ss ODNs were heated to 90° C. for 10 min and quickly chilled on ice immediately prior to assay. […] For ds ODNs, an equimolar mixture of complementary ODNs was heated to 90° C. for 10 min and slowly cooled to room temperature.
Preparation of Murine DNA 5-C-MTase. The DNA 5-C-MTase used in these studies was the 100,000×g supernatant of a 0.3M NaCl extract of Friend erythroleukemia cell nuclei.
Methylation Assay. Reaction mixtures (50 μl ) in 0.1M imidazole, pH 7.4/20 mM EDTA/0.5 mM dithiothreitol contained 0.5 μg of each ODN indicated, ≈0.6 units of DNA 5-C-MTase (1 unit transfers 1 pmol to A (AS)·A'Mp (M1) per min; see Table 7), and 2.8 μCi (1 Ci=37 GBq) of [methyl-^3 H]AdoMet (AdoMet=S-adenosylmethionine) (8 μM). […] For accuracy, methylation rates <5 pmol/30 min were measured in quadrupled reaction mixtures (200 μl ). After incubation for 30 min at 37° C., ODNs were processed for quantitation of radiolabel as described (20) with 25 μg of salmon sperm DNA added as carrier prior to perchloric acid precipitation.
All assays were performed in duplicate.

[2] = tested on: bacterial SssI methyltransferase; experiment: DNA methylase substrate activity with bacterial SssI enzyme preparation; type: biochemical; settings: Table 3; bacterial SssI enzyme preparation; 0.25 μg oligomer; average of 2 expts; background 1351
Description: They are labeled Sense (S), Antisense (AS), Methylated Antisense 1 (M1) and Methylated Antisense 2 (M2). […] This property of M2 provides an approach to accurately monitoring levels of DNA methyltransferase activity in clinically obtained tissue samples that might otherwise be contaminated by bacteria, since bacterial DNA methyltransferase activity would be excluded as a component of this measurement.
RESULTS ARE AVERAGE OF 2 EXPTS. BACTERIAL SSS1 ENZYME PREPARATION. ASSAYE

murine DNA 5-C-MTase [3] = experiment: Methylation assay: methyl transfer from [methyl-3H]AdoMet to ODNs by DNA methyltransferase from Friend erythroleukemia cell nuclei; type: biochemical; settings: Table 2; enzyme preparation from Friend leukemia cells; 1 μg oligomer; average of 2 expts; background 2691
[4] = target: T1, DNA 5-C-methyltransferase (murine, Friend erythroleukemia cells) (Mus musculus, UniProt P13864 P13864:1-1620); experiment: methylation rate; settings: protein: extract; tags: 0.3 M NaCl nuclear extract, 100,000 x g supernatant; single approx. 190 kDa species forming covalent complexes
T1 sequence (P13864 whole entry, one chain of several): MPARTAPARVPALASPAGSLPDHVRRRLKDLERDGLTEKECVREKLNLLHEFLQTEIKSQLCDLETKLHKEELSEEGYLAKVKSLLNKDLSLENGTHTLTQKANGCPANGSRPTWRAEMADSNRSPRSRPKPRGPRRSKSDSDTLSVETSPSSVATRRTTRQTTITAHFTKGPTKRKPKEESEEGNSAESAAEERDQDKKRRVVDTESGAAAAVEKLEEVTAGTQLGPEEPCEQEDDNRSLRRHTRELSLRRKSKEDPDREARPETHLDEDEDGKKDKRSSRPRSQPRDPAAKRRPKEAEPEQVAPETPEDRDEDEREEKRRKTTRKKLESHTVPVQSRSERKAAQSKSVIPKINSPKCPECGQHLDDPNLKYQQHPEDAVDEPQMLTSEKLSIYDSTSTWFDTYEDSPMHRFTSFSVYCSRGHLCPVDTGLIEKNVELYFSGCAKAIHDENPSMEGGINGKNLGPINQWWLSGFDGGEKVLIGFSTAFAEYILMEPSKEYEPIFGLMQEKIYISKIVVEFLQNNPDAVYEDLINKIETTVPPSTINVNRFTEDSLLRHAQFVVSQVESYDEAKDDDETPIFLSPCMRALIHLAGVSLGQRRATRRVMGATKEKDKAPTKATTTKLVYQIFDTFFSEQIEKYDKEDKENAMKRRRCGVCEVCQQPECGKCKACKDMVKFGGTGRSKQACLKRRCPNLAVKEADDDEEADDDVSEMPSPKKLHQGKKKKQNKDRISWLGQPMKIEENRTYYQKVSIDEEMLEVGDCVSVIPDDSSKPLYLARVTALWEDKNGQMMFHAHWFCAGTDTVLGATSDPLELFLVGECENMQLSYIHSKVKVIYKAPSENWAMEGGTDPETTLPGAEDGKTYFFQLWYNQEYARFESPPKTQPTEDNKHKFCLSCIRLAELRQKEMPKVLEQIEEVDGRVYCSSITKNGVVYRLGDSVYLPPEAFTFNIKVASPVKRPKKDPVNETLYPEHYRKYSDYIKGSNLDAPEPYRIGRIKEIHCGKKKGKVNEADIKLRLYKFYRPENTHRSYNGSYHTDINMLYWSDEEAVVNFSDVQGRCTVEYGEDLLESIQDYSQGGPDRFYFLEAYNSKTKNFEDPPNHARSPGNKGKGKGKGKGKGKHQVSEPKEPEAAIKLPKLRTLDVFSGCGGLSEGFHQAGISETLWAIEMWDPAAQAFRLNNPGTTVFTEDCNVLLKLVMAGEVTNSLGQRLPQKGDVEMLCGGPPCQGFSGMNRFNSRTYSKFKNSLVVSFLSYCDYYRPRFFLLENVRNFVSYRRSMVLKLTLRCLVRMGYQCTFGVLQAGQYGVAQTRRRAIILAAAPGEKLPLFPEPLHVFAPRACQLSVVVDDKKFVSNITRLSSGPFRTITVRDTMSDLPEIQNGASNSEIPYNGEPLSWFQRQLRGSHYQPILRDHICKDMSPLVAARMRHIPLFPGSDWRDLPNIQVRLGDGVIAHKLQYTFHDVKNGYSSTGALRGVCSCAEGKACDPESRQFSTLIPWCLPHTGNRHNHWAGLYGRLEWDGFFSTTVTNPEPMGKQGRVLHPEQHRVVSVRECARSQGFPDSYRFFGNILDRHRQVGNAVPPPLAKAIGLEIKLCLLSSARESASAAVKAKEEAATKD

[5] = target: T1, DNA 5-C-methyltransferase (murine, …); experiment: methylation rate; settings: protein: extract; tags: 0.3 M NaCl nuclear extract, 100,000 x g supernatant; single approx. 190 kDa species forming covalent complexes; remark: listed apart in the source
Description: (§1) Methylation Assay. Reaction mixtures (50 µl) in 0.1M imidazole, pH 7.4/20 mM EDTA/0.5 mM dithiothreitol contained 0.5 µg of each ODN indicated, ≈0.6 units of DNA 5-C-MTase (1 unit transfers 1 pmol to A (AS)·A'M_p (M1) per min; see Table 7), and 2.8 µCi (1 Ci=37 GBq) of [methyl-^3H]AdoMet (AdoMet=S-adenosylmethionine) (8 µM). Substrate C sites are in excess in the reaction, and methyl transfer is linear for >45 min. For accuracy, methylation rates <5 pmol/30 min were measured in quadrupled reaction mixtures (200 µl). After incubation for 30 min at 37° C., ODNs were processed for quantitation of radiolabel as described (20) with 25 µg of salmon sperm DNA added as carrier prior to perchloric acid precipitation.
(§2) Substitution of C residues with 5FC was used to determine which sites become substrates for enzymatic methylation in A strands containing 5MeC. It has been shown that both bacterial and mammalian DNA 5-C-MTases form stable covalent linkages with 5FC residues in DNA during the process of methylation. Under conditions of substrate excess, this leads to rapid inactivation of the enzymes. […] Thus, 5MeC in position 5 or 7 activates DNA 5-C-MTase to methylate C18 while failing to activate methylation of a C residue only two bases downstream.

[6] = target: T1, DNA 5-C-methyltransferase (murine, …); experiment: inhibition; methylation rate; 5FC in substrate site inactivates enzyme; settings: protein: extract; tags: 0.3 M NaCl nuclear extract, 100,000 x g supernatant; single approx. 190 kDa species forming covalent complexes
Description: as §1, §2

[7] = target: T2, Hha I DNA methyltransferase (UniProt P05102 P05102:1-327); experiment: ss ODNs not substrates at 37 C
T2 sequence: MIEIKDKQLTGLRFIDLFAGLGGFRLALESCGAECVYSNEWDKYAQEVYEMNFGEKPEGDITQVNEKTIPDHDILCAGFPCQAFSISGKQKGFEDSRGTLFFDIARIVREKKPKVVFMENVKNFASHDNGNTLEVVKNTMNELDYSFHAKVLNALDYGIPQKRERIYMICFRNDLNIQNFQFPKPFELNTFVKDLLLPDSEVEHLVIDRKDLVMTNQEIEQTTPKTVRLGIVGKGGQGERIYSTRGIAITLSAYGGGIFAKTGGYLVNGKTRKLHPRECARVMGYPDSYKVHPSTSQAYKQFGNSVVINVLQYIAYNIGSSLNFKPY

[8] = Table 10, ss ODNs with 5 mC and 5 FC substitutions

## 5' GATCGCGGATCCGGAATGNGCAAT 3' (5-fluorocytosine, further chemistry not given here) [Seq. ID #14]
Murine DNA 5-C-MTase [1]
  ACTIVITY (cpm), DNA methylase (FL): 36,000 cpm

## structure 6: ODN with 5MeC in position 7 that forms a stem-loop with the same relationship between C7 and C18 as A (FIG. 7, 8) (DNA ATGACGCACCTCGTTGACGCGCTA; DNA, [5mC] at 7, backbone not given here)
Murine DNA 5-C-MTase [1]
  rate of methylation relative to unmethylated A (times): > 300

## 5' ATTGCGNATTCCGGATCCGCGATC 3' (5-methylcytosine at 7, further chemistry not given here) [ASM7, ODN A (AS) with 5-methylcytosine (N) at position 7]
Murine DNA 5-C-MTase [1]
  RELATIVE ACTIVITY (rate of methylation relative to an equal amount of AS): 170
Murine DNA 5-C-MTase [1]; Table 7, phosphorothioate end capped oligomers, standard cell free enzyme assay
  Rate of methylation: 72,010 cpm/μg oligo/30 min
Murine DNA 5-C-MTase [1]; Table 9, ss ODNs with 5MeC substituted for C at the sites given
  RATE (rate of methylation relative to A): 140
Murine DNA 5-C-MTase [1]; [8]
  RATE (rate of methylation relative to A): 130
Murine DNA 5-C-MTase [1]; activity of D compared with C
  stimulation of the rate of methylation by phosphorothioate capping: more than 50%

## 5' GATCGCGGATCNGGAATGCGCAAT 3' (5-fluorocytosine, further chemistry not given here) [Seq. ID #13]
Murine DNA 5-C-MTase [1]
  ACTIVITY (cpm), DNA methylase (FL): 28,000 cpm

## 5' GATCGCGGATNCGGAATGCGCAAT 3' (5-fluorocytosine, further chemistry not given here) [Seq. ID #12]
Murine DNA 5-C-MTase [1]
  ACTIVITY (cpm), DNA methylase (FL): 140,000 cpm

## 5' ATTGNGCATTCNGGATCNGNGATC 3' (5-methylcytosine at 5, 12, 18, 20, further chemistry not given here) [M1, AS with 5-methylcytosine (N) at 5, 12, 18, 20 (all CpG sites)]
Murine DNA 5-C-MTase [1]
  DNA METHYLASE (FL) SUBSTRATE ACTIVITY, ACTIVITY (CPM): 1373 CPM
[2]
  DNA METHYLASE SUBSTRATE ACTIVITY, ACTIVITY (CPM): 2339 CPM
Murine DNA 5-C-MTase [3]
  DNA METHYLASE SUBSTRATE ACTIVITY, ACTIVITY (CPM): 5487 CPM

## 5' ATTGCGCATTCCGGATCCGCGATC 3' (chemistry not given here) [AS, unmethylated antisense single-stranded 24mer ODN]
Murine DNA 5-C-MTase [1]
  DNA METHYLASE (FL) SUBSTRATE ACTIVITY, ACTIVITY (CPM): 1936 CPM
  RELATIVE ACTIVITY (rate of methylation relative to an equal amount of AS): 1
Murine DNA 5-C-MTase [1]; [8]
  RATE (rate of methylation relative to A): 1
[2]
  DNA METHYLASE SUBSTRATE ACTIVITY, ACTIVITY (CPM): 49282 CPM
Murine DNA 5-C-MTase [3]
  DNA METHYLASE SUBSTRATE ACTIVITY, ACTIVITY (CPM): 12341 CPM

## 5' ATTGCGNATTCCGGATCRGCGATC 3' (5-methylcytosine at 7, 5-fluorocytosine at 18, further chemistry not given here) [ASM7 F18, AS with 5-methylcytosine (N) at 7 and 5-fluorocytosine (R) at 18]
Murine DNA 5-C-MTase [1]
  inhibition of DNA methyltransferase (in words): potent
  RELATIVE ACTIVITY (rate of methylation relative to an equal amount of AS): 3
Murine DNA 5-C-MTase [1]; [8]
  RATE (rate of methylation relative to A): 3.2

## structure 8: ODN with 5MeC in position 7 that forms a homodimer but no stem-loop analogous to structures 5 and 6 (FIG. 9) (DNA ATTGCGCTACTCGGATCCGGCCAT; DNA, [5mC] at 7, backbone not given here)
Murine DNA 5-C-MTase [1]
  rate of methylation relative to unmethylated A (times): same rate as unmethylated A

## 3' TAACGCGTAAGGCCTAGGCGCTAG 5' (chemistry not given here; listed 3' to 5') [unmethylated sense single-stranded 24mer ODN]
Murine DNA 5-C-MTase [1]
  DNA METHYLASE (FL) SUBSTRATE ACTIVITY, ACTIVITY (CPM): 1598 CPM
[2]
  DNA METHYLASE SUBSTRATE ACTIVITY, ACTIVITY (CPM): 175225 CPM
Murine DNA 5-C-MTase [3]
  DNA METHYLASE SUBSTRATE ACTIVITY, ACTIVITY (CPM): 4843 CPM

## GATCGCGGATCCGGAATGCGCAAT (ssDNA, 5mC at 4) [A' 5mC4]
[4]
  binding signal: 0.4 relative to A

## GATCGCGGATCCGGAATGCGCAAT (ssDNA, 5mC at 11) [A' 5mC11]
[4]
  binding signal: 1.7 relative to A

## ATTGCGCATTCCGGATCCGCGATC (ssDNA, 5mC at 7,11,17; 5-fluoro-C at 20 [5mC at 7,11,17; 5-fluoro-C at 20]) [AMx F20]
[5]
  binding signal: 168 relative to A

## GATCGCGGATCCGGAATGCGCAAT (ssDNA, 5mC at 21) [A' 5mC21]
[4]
  binding signal: 37 relative to A

## ATTGCGCATTCCGGATCCGCGATC (ssDNA, 5mC at 5; 5-fluoro-C at 18) [ASM5 F18]
[6]
  binding signal: 1 relative to A

## ATTGCGCATTCCGGATCCGCGATC (ssDNA, 5mC at 5; 5-fluoro-C at 20) [ASM5 F20]
[5]
  binding signal: 152 relative to A

## ATTGCGCATTCCGGATCCGCGATC (ssDNA) [AS (A)]
[7]
  binding result: no binding

## ATTGCGCATTCCGGATCCGCGATC (ssDNA, 5mC at 17) [ASM17]
[4]
  binding signal: 3.5 relative to A

## GATCGCGGATCCGGAATGCGCAAT (ssDNA, 5mC at 12) [A' 5mC12]
[4]
  binding signal: 67 relative to A

## GATCGCGGATCCGGAATGCGCAAT (ssDNA, 5mC at 19) [A' 5mC19]
[4]
  binding signal: 1 relative to A

## ATTGCGCATTCCGGATCCGCGATC (ssDNA, 5mC at 7,11,17; 5-fluoro-C at 5 [5mC at 7,11,17; 5-fluoro-C at 5]) [AMx F5]
[5]
  binding signal: 170 relative to A

## GATCGCGGATCCGGAATGCGCAAT (ssDNA, 5mC at 11,21) [M4 (SMx)]
[4]
  binding signal: 75 relative to A

## ATTGCGCATTCCGGATCCGCGATC (ssDNA, 5mC at 20) [ASM20]
[4]
  binding signal: 2.5 relative to A

## ATTGCGCATTCCGGATCCGCGATC (ssDNA, 5mC at 7,11,17; 5-fluoro-C at 12 [5mC at 7,11,17; 5-fluoro-C at 12]) [AMx F12]
[5]
  binding signal: 165 relative to A

## ATTGCGCATTCCGGATCCGCGATC (ssDNA, 5mC at 7,11,17; 5-fluoro-C at 18 [5mC at 7,11,17; 5-fluoro-C at 18]) [AMx F18]
[6]
  binding signal: 2 relative to A

## GATCGCGGATCCGGAATGCGCAAT (ssDNA, 5mC at 6,19) [A' 5mC6,19]
[4]
  binding signal: 1 relative to A

## ATTGCGCATTCCGGATCCGCGATC (ssDNA, 5mC at 18) [ASM18]
[4]
  binding signal: 12 relative to A

## ATTGCGCATTCCGGATCCGCGATC (ssDNA, 5mC at 7; 5-fluoro-C at 20 [5mC at 7; 5-fluoro-C at 20]) [ASM7 F20]
[5]
  binding signal: 160 relative to A

## GATCGCGGATCCGGAATGCGCAAT (ssDNA, 5mC at 6) [A' 5mC6]
[4]
  binding signal: 42 relative to A
